In ChEMBL document CHEMBL4417631, “Oral peptide inhibitors of interleukin-23 receptor and their use to treat inflammatory bowel diseases” (2017) one finds IC50 and half-life data, which are given here for 18 molecules.

Series [1] can be described thus: Inhibition of interleukin-23 binding to rat interleukin-23 receptor incubated for 2 hrs by competitive binding ELISA. Background: In an ELISA, binding on a coated surface is turned into a signal by an enzyme label.
The nature of series [2]: Half life in simulated intestinal fluid at 20 uM by LC-MS/MS analysis. The series is classed as ADME.
In series [3] the target is T1, Interleukin-23 receptor (Homo sapiens, UniProt Q5VWK5).
T1 sequence (Q5VWK5 whole entry): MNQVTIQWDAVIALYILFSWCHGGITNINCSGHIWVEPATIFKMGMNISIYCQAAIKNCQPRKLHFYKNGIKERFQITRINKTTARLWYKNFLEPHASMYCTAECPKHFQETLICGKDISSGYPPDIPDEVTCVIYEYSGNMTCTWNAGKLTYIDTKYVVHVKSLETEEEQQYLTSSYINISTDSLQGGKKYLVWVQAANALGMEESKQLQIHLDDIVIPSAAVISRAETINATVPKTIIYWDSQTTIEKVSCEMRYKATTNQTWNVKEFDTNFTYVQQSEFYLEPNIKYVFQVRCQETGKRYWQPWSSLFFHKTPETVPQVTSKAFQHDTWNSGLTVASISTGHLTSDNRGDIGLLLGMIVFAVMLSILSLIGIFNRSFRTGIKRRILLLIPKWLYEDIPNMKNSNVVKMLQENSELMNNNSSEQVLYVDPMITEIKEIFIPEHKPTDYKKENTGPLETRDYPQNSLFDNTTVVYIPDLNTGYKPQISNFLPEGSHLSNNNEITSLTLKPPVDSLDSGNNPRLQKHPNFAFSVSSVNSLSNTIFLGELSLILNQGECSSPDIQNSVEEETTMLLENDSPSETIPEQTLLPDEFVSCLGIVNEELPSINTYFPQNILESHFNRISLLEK
The series can be described thus: Inhibition of interleukin-23 binding to human interleukin-23 receptor incubated for 2 hrs by competitive binding ELISA.

Series [4] has as its target T1, Interleukin-23 receptor. Kind of series: Inhibition of interleukin-23 receptor in human DB cells assessed as reduction in IL-23-stimulated STAT3 phosphorylation incubated for 30 mins by HTRF assay. The series is classed as cell-based. (TR-FRET usually uses a lanthanide donor and a delayed reading to cut background.)

pIC50: −log10 of the molar value. Where a SMILES comes first, the peptide text is derived from it. A value given as a limit tells only on which side of the number the result lay.

For `CC(=O)N[C@@H](CS)C(=O)N[C@@H](CCC(N)=O)C(=O)N[C@H](C(=O)N[C@@H](Cc1c[nH]c2ccccc12)C(=O)N[C@@H](CCC(N)=O)C(=O)N[C@@H](CS)C(=O)N[C@@H](Cc1ccc(O)cc1)C(=O)N[C@@H](Cc1c[nH]c2ccccc12)C(=O)NC(C)(C)C(=O)N[C@@H](CCC(=O)O)C(=O)N[C@@H](CC(N)=O)C(=O)NCC(N)=O)[C@@H](C)O`, the pIC50 (as a rule, the negative decadic logarithm of the IC50, by convention in mol/L) in series [1] is 7.47.
On the same count and under the same terms, for `CC(=O)N[C@@H](CS)C(=O)N[C@@H](CC(N)=O)C(=O)N[C@H](C(=O)N[C@@H](Cc1c[nH]c2ccccc12)C(=O)N[C@@H](CCC(N)=O)C(=O)N[C@@H](CS)C(=O)N[C@@H](Cc1ccc(O)cc1)C(=O)N[C@@H](Cc1c[nH]c2ccccc12)C(=O)N[C@@H](CCCNC(=N)N)C(=O)N[C@H](C(=O)N[C@@H](Cc1ccccc1)C(=O)NCC(=O)NCCOCC(=O)N[C@H](CCCCN)C(N)=O)C(C)C)[C@@H](C)O` the value was 7.10; for `CC(=O)N[C@@H](CS)C(=O)N[C@@H](CCCNC(=N)N)C(=O)N[C@H](C(=O)N[C@@H](Cc1c[nH]c2ccccc12)C(=O)N[C@@H](CCC(N)=O)C(=O)N[C@@H](CS)C(=O)N[C@@H](Cc1ccc(O)cc1)C(=O)N[C@@H](Cc1c[nH]c2ccccc12)C(=O)N[C@@H](CCCNC(=N)N)C(=O)N[C@@H](CCC(=O)O)C(=O)N[C@@H](CC(N)=O)C(=O)NCC(=O)N[C@@H](C)C(=O)N[C@H](CCCCN)C(N)=O)[C@@H](C)O`, 7.07; for `CC(=O)N[C@@H](CS)C(=O)N[C@@H](CCC(N)=O)C(=O)N[C@H](C(=O)N[C@@H](Cc1c[nH]c2ccccc12)C(=O)N[C@@H](CCC(N)=O)C(=O)N[C@@H](CS)C(=O)N[C@@H](Cc1ccc2ccccc2c1)C(=O)N[C@@H](Cc1c[nH]c2ccccc12)C(=O)N[C@@H](CCC(C)C)C(=O)N[C@@H](CCC(=O)O)C(=O)N[C@@H](CC(N)=O)C(=O)NCC(N)=O)[C@@H](C)O`, 7.14.
Same read-out and setting: for `CC(=O)N[C@@H](CS)C(=O)N[C@@H](CCCN)C(=O)N[C@H](C(=O)N[C@@H](Cc1c[nH]c2ccccc12)C(=O)N[C@@H](CCC(N)=O)C(=O)N[C@@H](CS)C(=O)N[C@@H](Cc1ccc(O)cc1)C(=O)N[C@@H](Cc1c[nH]c2ccccc12)C(=O)N[C@@H](CCCNC(=N)N)C(=O)N[C@H](C(=O)N[C@@H](Cc1ccccc1)C(=O)NCC(=O)NCCOCC(=O)N[C@H](CCCCN)C(N)=O)C(C)C)[C@@H](C)O` the value was 7.16; for `CC(=O)N[C@@H](CS)C(=O)N[C@@H](CCCNC(=N)N)C(=O)N[C@H](C(=O)N[C@@H](Cc1c[nH]c2ccccc12)C(=O)N[C@@H](CCC(N)=O)C(=O)N[C@@H](CS)C(=O)N[C@@H](Cc1ccc(O)cc1)C(=O)N[C@@H](Cc1c[nH]c2ccccc12)C(=O)N[C@@H](CO)C(=O)N[C@@H](CCC(=O)O)C(=O)N[C@@H](Cc1ccccc1)C(=O)NCC(=O)N[C@H](C(=O)NCC(=O)N[C@@H](CCC(=O)O)C(N)=O)[C@@H](C)O)[C@@H](C)O` (Ac-CRTWQCYWSEFGTGE-NH2), 6.11; for `CC(=O)N[C@@H](CS)C(=O)N(C)[C@@H](CCC(N)=O)C(=O)N[C@H](C(=O)N[C@@H](Cc1c[nH]c2ccccc12)C(=O)N[C@@H](CCC(N)=O)C(=O)N[C@@H](CS)C(=O)N[C@@H](Cc1ccc(O)cc1)C(=O)N[C@@H](Cc1c[nH]c2ccccc12)C(=O)N[C@@H](CCCNC(=N)N)C(=O)N[C@H](C(=O)N[C@@H](Cc1ccccc1)C(=O)NCC(=O)NCCC(=O)N[C@H](CCCCN)C(N)=O)C(C)C)[C@@H](C)O`, 7.07.
The same measure, in the same setting: next, `CC(=O)N[C@@H](CS)C(=O)N[C@@H](CCC(N)=O)C(=O)N[C@H](C(=O)N[C@@H](Cc1c[nH]c2ccccc12)C(=O)N[C@@H](CCC(N)=O)C(=O)N[C@@H](CS)C(=O)N[C@@H](Cc1cccc2ccccc12)C(=O)N[C@@H](Cc1ccc2ccccc2c1)C(=O)N[C@@H](CCC(C)C)C(=O)N[C@@H](CCC(=O)O)C(=O)N[C@@H](CC(N)=O)C(=O)NCC(N)=O)[C@@H](C)O`: 6.90.
As to `CC(=O)NCCCC[C@H](NC(=O)[C@](C)(CCCCN)NC(=O)[C@H](Cc1ccc2ccccc2c1)NC(=O)[C@H](Cc1ccc(Cl)c(Cl)c1)NC(=O)[C@@H]1CSCC[C@H](NC(C)=O)C(=O)N[C@@H](CCC(N)=O)C(=O)N[C@@H]([C@@H](C)O)C(=O)N[C@@H](Cc2c[nH]c3ccccc23)C(=O)N[C@@H](CCC(N)=O)C(=O)N1)C(=O)N[C@@H](CC(N)=O)C(=O)NCC(N)=O`, the half-life (in general, how long it takes for the measured level to halve) at 20 µM in series [2] was 2 to 3 h. Moreover, the pIC50 at Interleukin-23 receptor [3] is 6.00 to 7.00; at Interleukin-23 receptor [4], 7.00 to 7.60.
For `CC(=O)N[C@H]1CCSC[C@@H](C(=O)N[C@@H](Cc2ccc(OCCN)cc2)C(=O)N[C@@H](Cc2ccc3ccccc3c2)C(=O)N[C@@H](CCCN)C(=O)N[C@@H](CN)C(=O)N[C@@H](CC(N)=O)C(=O)NCC(N)=O)NC(=O)[C@H](CCC(N)=O)NC(=O)[C@H](Cc2c[nH]c3ccccc23)NC(=O)[C@H]([C@@H](C)O)NC(=O)[C@H](CCC(N)=O)NC1=O`, in that order: less than 1 h, 7.00 to 7.60 and 7.00 to 7.60.
Regarding `CC(=O)NCCCC[C@H](NC(=O)[C@H](CCCN)NC(=O)[C@H](Cc1ccc2ccccc2c1)NC(=O)[C@H](Cc1ccc(OCCN)cc1)NC(=O)[C@@H]1CSCC[C@H](NC(C)=O)C(=O)N[C@@H](CCC(N)=O)C(=O)N[C@@H]([C@@H](C)O)C(=O)N[C@@H](Cc2c[nH]c3ccccc23)C(=O)N[C@@H](CCC(N)=O)C(=O)N1)C(=O)N[C@@H](CC(N)=O)C(=O)NCC(N)=O`, the half-life at 20 µM in series [2] was less than 1 h. Besides, the pIC50 on Interleukin-23 receptor [3] and at Interleukin-23 receptor [4] was 7.60 to 8.00 each time.
`CCCCCCCC[C@H](NC(=O)[C@@H]1CSCC[C@H](NC(C)=O)C(=O)N[C@@H](CCC(N)=O)C(=O)N[C@@H]([C@@H](C)O)C(=O)N[C@@H](Cc2c[nH]c3ccccc23)C(=O)N[C@@H](CCC(N)=O)C(=O)N1)C(=O)N[C@@H](Cc1ccc2ccccc2c1)C(=O)N[C@@](C)(CCCCN)C(=O)N[C@@H](CCCCNC(C)=O)C(=O)N[C@@H](CC(N)=O)C(=O)NCC(N)=O`: the half-life at 20 µM in series [2] is less than 1 h. This molecule also had a pIC50 on Interleukin-23 receptor [3] of 5.00.
For `CC(=O)NCCCC[C@H](NC(=O)[C@](C)(CCCCN)NC(=O)[C@H](Cc1ccc2ccccc2c1)NC(=O)[C@H](Cc1ccc(Oc2ccccc2)cc1)NC(=O)[C@@H]1CSCC[C@H](NC(C)=O)C(=O)N[C@@H](CCC(N)=O)C(=O)N[C@@H]([C@@H](C)O)C(=O)N[C@@H](Cc2c[nH]c3ccccc23)C(=O)N[C@@H](CCC(N)=O)C(=O)N1)C(=O)N[C@@H](CC(N)=O)C(=O)NCC(N)=O`, in that order: more than 6 h and 6.00 to 7.00.
Turning to `CC(=O)N[C@@H](CS)C(=O)N[C@@H](CCC(N)=O)C(=O)N[C@H](C(=O)N[C@@H](Cc1c[nH]c2ccccc12)C(=O)N[C@@H](CCC(N)=O)C(=O)N[C@H](C(=O)N[C@@H](Cc1ccc(O)cc1)C(=O)N[C@@H](Cc1c[nH]c2ccccc12)C(=O)N[C@H](CC(N)=O)C(=O)N[C@@H](CCC(=O)O)C(=O)N[C@@H](CC(N)=O)C(=O)NCC(N)=O)C(C)(C)S)[C@@H](C)O`, the half-life at 20 µM in series [2] is less than 1 h. The same molecule had a pIC50 on Interleukin-23 receptor [3] of 5.00 to 6.00.
For the molecule `CC(=O)N[C@H]1CCSC[C@@H](C(=O)N[C@@H](Cc2ccc(O)cc2)C(=O)N[C@@H](Cc2c[nH]c3ccccc23)C(=O)N[C@@H](CCC(C)C)C(=O)N[C@@H](CCC(=O)O)C(=O)N[C@@H](CC(N)=O)C(=O)NCC(N)=O)NC(=O)[C@H](CCC(N)=O)NC(=O)[C@H](Cc2c[nH]c3ccccc23)NC(=O)[C@H]([C@@H](C)O)NC(=O)[C@H](CCC(N)=O)NC1=O`, the half-life at 20 µM in series [2] was less than 1 h. The pIC50 on Interleukin-23 receptor [3] was 7.00 to 7.60; on Interleukin-23 receptor [4], 7.60 to 8.00.
In series [2], `CC(=O)NC[C@H](NC(=O)[C@H](CCCN)NC(=O)[C@H](Cc1c[nH]c2ccccc12)NC(=O)[C@H](Cc1ccc(OCCN)cc1)NC(=O)[C@@H]1CSCC[C@H](NC(C)=O)C(=O)N[C@@H](CCC(N)=O)C(=O)N[C@@H]([C@@H](C)O)C(=O)N[C@@H](Cc2c[nH]c3ccccc23)C(=O)N[C@@H](CCC(N)=O)C(=O)N1)C(=O)N[C@@H](CC(N)=O)C(=O)NCC(N)=O` gave a half-life at 20 µM of less than 1 h. Also, the pIC50 at Interleukin-23 receptor [3] was 6.00 to 7.00.
The corresponding values for `CC(=O)NCCCC[C@H](NC(=O)[C@](C)(CCCCN)NC(=O)[C@H](Cc1ccc2ccccc2c1)NC(=O)[C@H](Cc1c(C)cc(O)cc1C)NC(=O)[C@@H]1CSCC[C@H](NC(C)=O)C(=O)N[C@@H](CCC(N)=O)C(=O)N[C@@H]([C@@H](C)O)C(=O)N[C@@H](Cc2c[nH]c3ccccc23)C(=O)N[C@@H](CCC(N)=O)C(=O)N1)C(=O)N[C@@H](CC(N)=O)C(=O)NCC(N)=O` are more than 6 h and less than 6.00.
For `CC(=O)N[C@H]1CCSC[C@@H](C(=O)N[C@@H](Cc2ccc(OCCN)cc2)C(=O)N[C@@H](Cc2c[nH]c3ccccc23)C(=O)N[C@@H](CCCN)C(=O)N[C@@H](CN)C(=O)N[C@@H](CC(N)=O)C(=O)NCC(N)=O)NC(=O)[C@H](CCC(N)=O)NC(=O)[C@H](Cc2c[nH]c3ccccc23)NC(=O)[C@H]([C@@H](C)O)NC(=O)[C@H](CCC(N)=O)NC1=O`, in that order: less than 1 h and 6.00 to 7.00.
